Data: US8980848B2, “Flavonoid dimers and their use” (The Hong Kong Polytechnic University, priority 2010, dated 2015)
Like-named read-outs stand apart in the source and are kept apart here. Values belong to the molecule of their own block, whether it stands above or below them.

Assays:
[1] = test system: LCC6MDR cells; test: Tumor cell line cytotoxicity of flavonoid dimers, LCC6MDR; assay type: cell-based, human; details: IC50 of compound alone, 72 hrs
Summary of the method: (§1)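 LCC6, LCC6MDR and L929 cells seeded at 1×10^4 cells/well and exposed to graded doses of flavonoid dimers. Incubation 72 hrs at 37° C., 5% CO2. Read-out: % survivors.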

[2] = test system: LCC6 cells; test: Tumor cell line cytotoxicity of flavonoid dimers, LCC6; assay type: cell-based, human; details: IC50 of compound alone, 72 hrs
Summary of the method: as §1

[3] = test system: L929 cells; test: Cytotoxicity of flavonoid dimers, L929 mouse fibroblast; assay type: cell-based
Summary of the method: as §1

[4] = test system: LCC6, LCC6MDR and L929 cell lines; test: Cytotoxicity over LCC6, LCC6MDR and L929 cell lines; assay type: cell-based, human, mouse
Procedure: (§2) (b) Tumor Cell Line Cytotoxicity. The tumor cytotoxicity assays of flavonoid dimers were performed against LCC6, LCC6MDR and L929 cell lines. The cells were grown in supplemented DMEM media in an atmosphere of 95% air and 5% CO2 at 37° C. In brief, LCC6, LCC6MDR and L929 cells were seeded into 96-well flat bottom microtiter plate at 1×10^4 cells per well in a final volume of 100 μL media, respectively. A graded dose of flavonoid dimers was added into wells. The plate was incubated at 37° C. for 72 hrs at the atmosphere 5% CO2 in the air. The % of survivors was determined.

[5] = test system: LdAG83 promastigotes (wild type); test: In vitro anti-promastigote activity, LdAG83; assay type: cell-based, Leishmania donovani; details: read-out: Anti-promastigotes activity (IC50, μM) LdAG83
Summary of the method: (§3)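 L. donovani (LdAG83 wild type, SSG-resistant Ld39) and L. major Lm50122 promastigotes were seeded at 1×10^5 per well with a concentration series of compound.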

[6] = test system: Ld39 promastigotes (SSG-resistant); test: In vitro anti-promastigote activity, Ld39; assay type: cell-based, Leishmania donovani; details: read-out: Anti-promastigotes activity (IC50, μM) Ld39
Summary of the method: as §3

[7] = test system: Raw264.7 cells; test: Cytotoxicity, mouse macrophage Raw264.7; assay type: cell-based
Summary of the method: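 Raw264.7 (1×10^4 cells/well) and primary PEM cells (2×10^4 cells/well) in supplemented DMEM received graded compound doses and were incubated 72 h at 37 °C, 5% CO2. Percent survivors determined; cytotoxicity IC50 used for therapeutic index against antileishmanial IC50.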

[8] = biological target: T1, Pgp (LCC6MDR cells) (Homo sapiens, UniProt P08183); test: Cell proliferation assay: Pgp-modulating activity, reversal of anticancer drug resistance in LCC6MDR cells; details: for RF (Relative Fold), cpd at 0.5 μM: RF = (IC50 without modulator)/(IC50 with 0.5 μM modulator); for RF (Relative Fold), cpd at 0.5 μM / RF (Relative Fold), cpd at 1 μM: paclitaxel; for RF (Relative Fold), cpd at 0.5 μM / EC50 / RF (Relative Fold), cpd at 1 μM: LCC6MDR; for EC50: EC50 of compounds for reversing anticancer drug resistance (nM); for Therapeutic index: IC50 of compounds for L929/EC50 of compounds for lowering paclitaxel drug resistance; for RF (Relative Fold), cpd at 1 μM: RF = (IC50 without modulator)/(IC50 with 1.0 μM modulator)
T1 sequence (P08183 whole entry): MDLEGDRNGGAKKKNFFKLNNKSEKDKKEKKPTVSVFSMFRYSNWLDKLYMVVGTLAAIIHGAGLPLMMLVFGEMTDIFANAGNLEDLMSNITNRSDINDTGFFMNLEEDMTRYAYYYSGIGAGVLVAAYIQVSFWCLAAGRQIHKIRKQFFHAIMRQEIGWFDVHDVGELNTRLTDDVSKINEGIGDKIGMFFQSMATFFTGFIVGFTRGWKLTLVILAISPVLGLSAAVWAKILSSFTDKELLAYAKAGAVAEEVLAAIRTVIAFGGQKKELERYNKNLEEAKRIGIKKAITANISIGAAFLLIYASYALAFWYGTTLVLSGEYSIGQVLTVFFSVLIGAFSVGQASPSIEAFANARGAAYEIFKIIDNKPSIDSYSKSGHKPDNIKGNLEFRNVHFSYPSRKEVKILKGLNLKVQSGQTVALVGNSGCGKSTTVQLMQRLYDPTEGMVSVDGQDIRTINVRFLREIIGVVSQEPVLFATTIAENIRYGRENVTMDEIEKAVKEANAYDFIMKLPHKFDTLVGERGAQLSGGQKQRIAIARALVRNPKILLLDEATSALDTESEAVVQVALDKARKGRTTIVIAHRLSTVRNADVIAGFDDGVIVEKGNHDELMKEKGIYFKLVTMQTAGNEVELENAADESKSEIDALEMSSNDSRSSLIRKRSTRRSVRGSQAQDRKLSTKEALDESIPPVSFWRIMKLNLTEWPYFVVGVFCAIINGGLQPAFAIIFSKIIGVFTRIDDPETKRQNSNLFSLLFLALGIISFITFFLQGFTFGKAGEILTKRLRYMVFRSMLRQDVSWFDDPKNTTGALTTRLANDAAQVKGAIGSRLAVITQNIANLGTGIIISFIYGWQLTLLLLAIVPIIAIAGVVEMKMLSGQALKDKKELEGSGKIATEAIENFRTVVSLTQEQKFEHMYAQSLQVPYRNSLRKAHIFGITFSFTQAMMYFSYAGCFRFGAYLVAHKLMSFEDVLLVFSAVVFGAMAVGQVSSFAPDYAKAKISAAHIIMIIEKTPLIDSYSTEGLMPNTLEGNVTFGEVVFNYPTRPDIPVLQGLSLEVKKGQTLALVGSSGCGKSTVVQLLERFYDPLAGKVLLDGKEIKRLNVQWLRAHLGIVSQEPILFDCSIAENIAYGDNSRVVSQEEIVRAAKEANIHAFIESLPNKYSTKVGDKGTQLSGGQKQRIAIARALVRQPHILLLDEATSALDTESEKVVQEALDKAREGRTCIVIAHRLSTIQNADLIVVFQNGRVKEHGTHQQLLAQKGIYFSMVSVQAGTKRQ

[9] = biological target: T1, Pgp (LCC6MDR cells)
[10] = Tumor cell line cytotoxicity of flavonoid dimers, LCC6MDR; assay type: cell-based, human; details: human, LCC6MDR cells, IC50 of compound alone
Summary of the method: as §1

[11] = Tumor cell line cytotoxicity of flavonoid dimers, LCC6; assay type: cell-based, human; details: human, LCC6 cells, IC50 of compound alone
Summary of the method: as §1

[12] = Cytotoxicity of flavonoid dimers, L929 mouse fibroblast; assay type: cell-based; details: mouse, L929 fibroblast cells, IC50 of compound alone, 72 hrs, mouse fibroblast
Summary of the method: as §1

[13] = Cytotoxicity over LCC6, LCC6MDR and L929 cell lines; assay type: cell-based, human, mouse; details: human, mouse, LCC6MDR and L929 cell lines; cancer lines LCC6, LCC6MDR and/or L929
Procedure: as §2

[14] = test system: LCC6 cells; test: Doxorubicin accumulation in LCC6 cells; assay type: cell-based, human; details: 1 μM
Source text: Doxorubycin accumulation. […] […].

[15] = test system: LCC6 cells; test: Doxorubicin influx in LCC6 cells; assay type: cell-based, human; details: after 75 min
Procedure: (§4) Influx and Efflux Studies. […] 0.15% of DMSO acted as a negative control. The cells were harvested after 0, 15, 30, 45, 75 min for determining the intracellular Doxorubycin concentration as described previously. […] The cells were then washed and further incubated in the presence or absence of compound 18 (1 or 3 μM). At 0, 15, 30, 60, 90, 120, 150 and 180 min, the cells were harvested for measuring the intracellular Doxorubycin concentration.
(§5) Effect of Compound 18 on Doxorubicin Influx and Efflux of MDA435/LCC6MDR Cells. Experiments were performed to determine whether the increased accumulation of doxorubicin in LCC6MDR cells caused by 18 is due to potentiation of doxorubicin influx or inhibition of efflux.

[16] = test system: LCC6MDR cells; test: Doxorubicin influx in LCC6MDR cells; assay type: cell-based, human; details: for Intracellular doxorubicin level, influx: LCC6MDR, after 75 min
Procedure: as §4, §5

[17] = test system: LCC6 cells; test: Doxorubicin efflux in LCC6 cells; assay type: cell-based, human; details: after 3 hrs
Procedure: as §4
In the efflux experiments, both LCC6 and LCC6MDR were first pre-loaded with doxorubicin for 2 hrs, washed and the remaining doxorubicin was measured after 0, 15, 30, 60, 90, 120, 150 and 180 min. […] Thus efflux rate of LCC6MDR is higher than LCC6. At 1DM or 3 μM of 18, the doxorubicin efflux rate was unaltered in the wild type LCC6 cells. After 3 hrs, the intracellular doxorubicin levels of LCC cells at 1 μM (3122 FU, 71% of doxorubicin remained) and 3 μM (3103 FU, 71% of doxorubicin remained) were very close to that at 0 μM (2601 FU, 60% of doxorubicin remained), respectively (FIG. 3A).

[18] = biological target: T1, Pgp (LCC6MDR cells); test: Doxorubicin accumulation in LCC6MDR cells
[19] = test system: Lm50122 promastigotes; test: In vitro anti-promastigote activity, Lm50122; assay type: cell-based, Leishmania major; details: 3 days at 27° C., MTS; read-out: Anti-promastigotes activity (IC50, μM) Lm50122
Summary of the method: as §3

[20] = test system: LCC6 cells; test: Cell proliferation assay: paclitaxel on parental LCC6 cells without modulator; assay type: cell-based; details: Homo sapiens, LCC-6, no modulator, read-out: IC50 of paclitaxel of LCC6 in the absence of modulators
Source text: Cell Proliferation Assay.

Molecule: O=c1cc(-c2ccc(OCCOCCN(CCO)CCOCCOc3ccc(-c4cc(=O)c5ccccc5o4)cc3)cc2)oc2ccccc12 [Compound 14, 1,13-Bis[4′-(4H-chromen-4-on-2-yl)phenyl]-N-(2-hydroxyethyl)-1,4,10,13-tetraoxa-7-azamidecane]
IC50 [1]: 14.8 ± 5.9 µM
IC50 [2]: 10.7 ± 3.3 µM
IC50 [3]: 6.9 ± 1.4 µM
IC50 [4]: 6.9 to 14.8 µM
IC50 ([5]; 3 days at 27° C., MTS): 3.2 ± 1.1 µM
IC50 ([6]; 3 days at 27° C., MTS): 7.2 ± 2.2 µM
IC50 ([7]; 72 hrs): 6.4 ± 1.5 µM
RF (Relative Fold), cpd at 0.5 μM [8]: (5.0)

RF (Relative Fold), cpd at 0.5 μM [9]: (1.1)
Molecule: CC(C)(C)OC(=O)N(CCOCCOc1ccc(-c2cc(=O)c3c(OCc4ccccc4)cccc3o2)cc1)CCOCCOc1ccc(-c2cc(=O)c3c(OCc4ccccc4)cccc3o2)cc1 [Compound 16e, 1,13-Bis[4′-((5-benzyloxy)-4H-chromen-4-on-2-yl)phenyl]-7-(tert-butyloxycarbonyl)-1,4,10,13-tetraoxa-7-azamidecane]
IC50 [1]: > 100 µM
IC50 [2]: > 100 µM

Molecule: O=c1cc(-c2ccc(OCCOCCN(CCOCCOc3ccc(-c4cc(=O)c5ccccc5o4)cc3)Cc3ccccc3)cc2)oc2ccccc12 [Compound 18, 1,13-Bis[4′-(4H-chromen-4-on-2-yl)phenyl]-N-(benzyl)-1,4,10,13-tetraoxa-7-azamidecane]
IC50 at 72 h [10]: > 63 µM
IC50 at 72 h [11]: > 75 µM
IC50 at 72 h [12]: 85 µM
IC50 at 72 h [13]: > 63 µM
Effect on intracellular doxorubicin accumulation in parental LCC6 [14]: does not increase
Intracellular doxorubicin level, influx ([15]; LCC6, 1 μM): 0-1320 FU
Intracellular doxorubicin level, influx ([15]; LCC6, 3 μM): 0-1035 FU
Effect on doxorubicin influx ([16]; 1 or 3 μM, LCC6 and LCC6MDR): no effect on doxorubicin influx
Intracellular doxorubicin level, influx ([16]; 1 μM): 0-803 FU
Intracellular doxorubicin level, influx ([16]; 3 μM): 0-909 FU
Doxorubicin remained ([17]; LCC6, 1 μM): 71%
Intracellular doxorubicin level, efflux ([17]; LCC6, 1 μM): 3122 FU
Doxorubicin remained ([17]; LCC6, 3 μM): 71%
Intracellular doxorubicin level, efflux ([17]; LCC6, 3 μM): 3103 FU
IC50 ([5]; Leishmania donovani, 72 h): 8.4 ± 6.1 µM
IC50 ([6]; Leishmania donovani, 72 h): 12.3 ± 6 µM
IC50 ([7]; Mus musculus, RAW264.7, 72 h): > 79 µM
Fold more active than verapamil in inhibiting doxorubicin transport activity of Pgp [18]: roughly 16 fold
Concentration to restore doxorubicin accumulation in LCC6MDR to levels of parental LCC6 ([18]; LCC6MDR): 500 nM
EC50 ([8]; Daunorubicin): 95 ± 25 nM
EC50 ([8]; Doxorubicin): 131 ± 13 nM
EC50 ([8]; Mitoxantrone): 90 ± 20 nM
EC50 ([8]; Paclitaxel): 148 ± 18 nM
EC50 ([8]; Vinblasinte, vinblastine): 173 ± 27 nM
EC50 ([8]; Vincristine): 179 ± 32 nM
Therapeutic index [8]: 574.3

Molecule: Cc1ccc2oc(-c3ccc(OCCOCCN(CCOCCOc4ccc(-c5cc(=O)c6cc(C)ccc6o5)cc4)C(=O)OC(C)(C)C)cc3)cc(=O)c2c1 [Compound 17c, 1,13-Bis[4′-((6-methyl)-4H-chromen-4-on-2-yl)phenyl]-N-(tert-butyloxycarbonyl)-1,4,10,13-tetraoxa-7-azamidecane]
IC50 [1]: > 100 µM
IC50 [2]: > 100 µM
IC50 [3]: > 100 µM
IC50 [4]: > 100 µM
IC50 ([5]; 3 days at 27° C., MTS): 21 µM
IC50 ([6]; 3 days at 27° C., MTS): 100 µM
IC50 [19]: > 100 µM
IC50 ([7]; 72 hrs): > 100 µM
RF (Relative Fold), cpd at 0.5 μM [8]: (9.6)
RF (Relative Fold), cpd at 1 μM [8]: (139.2)
RF (Relative Fold), cpd at 1 μM ([8]; listed as 17): 139.0

Molecule: CC(=O)O[C@H]1C(=O)[C@@]2(C)[C@H]([C@H](OC(=O)c3ccccc3)[C@]3(O)C[C@H](OC(=O)[C@H](O)[C@@H](NC(=O)c4ccccc4)c4ccccc4)C(C)=C1C3(C)C)[C@]1(OC(C)=O)CO[C@@H]1C[C@@H]2O [paclitaxel]
IC50 [20]: 0.0016 ± 0.0003 µM

RF (Relative Fold), cpd at 0.5 μM [9]: (11.3)
Molecule: 1,13-Bis[4′-((5-hydroxy)-4H-chromen-4-on-2-yl)phenyl]-7-(tert-butyloxycarbonyl)-1,4,10,13-tetraoxa-7-azamidecane [Compound 16f]
IC50 [1]: > 100 µM
IC50 [2]: > 100 µM
IC50 [3]: > 100 µM

Molecule: CCN(CCOCCOc1ccc(-c2cc(=O)c3ccccc3o2)cc1)CCOCCOc1ccc(-c2cc(=O)c3ccccc3o2)cc1 [Compound 13, 1,13-Bis[4′-(4H-chromen-4-on-2-yl)phenyl]-N-(ethyl)-1,4,10,13-tetraoxa-7-azamidecane]
IC50 [1]: 17.3 ± 3.8 µM
IC50 [2]: 10.3 ± 2.2 µM
IC50 [3]: 6.9 ± 2 µM
IC50 [4]: 6.9 to 17.3 µM
IC50 ([5]; 3 days at 27° C., MTS): 3.2 ± 0.8 µM
IC50 ([6]; 3 days at 27° C., MTS): 5.5 ± 1.1 µM
IC50 ([7]; 72 hrs): 8.3 ± 1 µM
EC50 [9]: 0.2 µM
Therapeutic index [8]: 34.5
RF (Relative Fold), cpd at 0.5 μM [8]: (26.9)

Molecule: COc1ccc(CCN(C)CCCC(C#N)(c2ccc(OC)c(OC)c2)C(C)C)cc1OC (stereo not drawn) [Verapamil, verapamil, reference compound]
Effect on intracellular doxorubicin accumulation in parental LCC6 [14]: does not increase

Molecule: CCOC(=O)CCN(CCOCCOc1ccc(-c2cc(=O)c3ccccc3o2)cc1)CCOCCOc1ccc(-c2cc(=O)c3ccccc3o2)cc1 [Compound 15, 1,13-Bis[4′-(4H-chromen-4-on-2-yl)phenyl]-N-(3-ethoxy-3-oxopropyl)-1,4,10,13-tetraoxa-7-azamidecane]
IC50 [1]: 17.7 ± 3.7 µM
IC50 [2]: 13.5 ± 0.5 µM
IC50 [3]: 18.1 ± 3.4 µM
IC50 [4]: 13.5 to 17.7 µM
IC50 ([5]; 3 days at 27° C., MTS): 3.8 ± 0.8 µM
IC50 ([6]; 3 days at 27° C., MTS): 6.6 ± 0.2 µM
RF (Relative Fold), cpd at 0.5 μM [8]: (5.3)

RF (Relative Fold), cpd at 1 μM [9]: 1.2
Molecule: CC(C)(C)OC(=O)N(CCOCCOc1ccc(-c2oc3ccccc3c(=O)c2OCc2ccccc2)cc1)CCOCCOc1ccc(-c2oc3ccccc3c(=O)c2OCc2ccccc2)cc1 [Compound 16g, 1,13-Bis[4′-((3-benzyloxy)-4H-chromen-4-on-2-yl)phenyl]-7-(tert-butyloxycarbonyl)-1,4,10,13-tetraoxa-7-azamidecane]
